Laboratory results published in patent publication US12349708B2, “Use and methods of 1,3-propanediol to improve taste and/or off-taste qualities” (Primient Covation LLC, priority 2019, dated 2025).
“Also recorded” adds a separate entry of the source. Counter-ions that a name gives are not always drawn.

Tests used:
[1] = test system: experienced and trained panelist; assay: Sensorial description of energy drinks and additive solutions with propylene glycol or biologically-produced 1,3-propanediol (multi-sip-and-swallow taste method); conditions: for Sensorial Description: RT;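 for all read-outs here: propylene glycol or 1,3-propanediol added at 0.01, 0.1 or 1.0%, tasted by multi-sip-and-swallow in duplicate, compared with matching controls lacking either additive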
[2] = 0.05% in black tea; U.S. Pat. No. 8,685,436; cited from earlier work

CC(O)CO (stereo not drawn) [PG, propylene glycol, reference compound]
Sensorial Description ([1]; 0.01% PG or PDO in 238 ppm sucralose (10% SE) in distilled water): 6-7% SE, significantly less sweet | Sensorial Description ([1]; 0.01% PG or PDO in 338 ppm caffeine in distilled water (caffeine drink)): Looked similar to Control #72. | Sensorial Description ([1]; 0.01% PG or PDO in 3,338 ppm caffeine in distilled water (caffeine shot)): (small sip): similar to Control #65. | Sensorial Description ([1]; 0.01% PG or PDO in 10,500 ppm malic acid and 2,000 ppm sucralose in distilled water): Less sweetness and sourness intensities (different | Sensorial Description ([1]; 0.01% PG or PDO in Bang energy drink): Significantly less sweet and its lingering but still | Sensorial Description ([1]; 0.01% PG or PDO in Berry flavor in distilled water): Less dry than Control #114, slight less flavor. | Sensorial Description ([1]; 0.01% PG or PDO in Monster Energy Zero Ultra): Significant less off-taste, less sourness, significantly | Sensorial Description ([1]; 0.01% PG or PDO in Monster Energy drink): Note: Loss of carbonation. Significantly less | Sensorial Description ([1]; 0.01% PG or PDO in NOS High Performance Energy Drink): Significantly less sourness and flavor, less sweet. | Sensorial Description ([1]; 0.01% PG or PDO in Orange 5-hour ENERGY shot (5HE Orange)): Significantly less flavor and bitterness, still strong | Sensorial Description ([1]; 0.01% PG or PDO in Red Bull Energy Drink): Much better taste quality overall significantly less | Sensorial Description ([1]; 0.01% PG or PDO in Red Bull Sugar Free): Significantly less off-tastes, still different off-taste | Sensorial Description ([1]; 0.01% PG or PDO in Rockstar Original energy drink): Clearer off-flavor than sweet/sour, less sourness but | reduction of sweetness and lingering at 1st half of the taste time ([1]; 0.01% in 2,000 ppm sucralose in distilled water): lingering, ~40% less at 1st half of the taste time, | Sensorial Description ([1]; 0.1% PG or PDO in 238 ppm sucralose (10% SE) in distilled water): ~5-6% SE, slightly less sweetness | Sensorial Description ([1]; 0.1% PG or PDO in 2,000 ppm sucralose in distilled water): (small sip): Less overall sweet quality including 2nd | Sensorial Description ([1]; 0.1% PG or PDO in 3,338 ppm caffeine in distilled water (caffeine shot)): (small sip): similar to Control #65. | Sensorial Description ([1]; 0.1% PG or PDO in Berry 5-hour ENERGY shot (5HE Berry)): Significantly less sweet and aftertaste and sweet | Sensorial Description ([1]; 0.1% PG or PDO in Berry flavor in distilled water): Less dry than 0.01% PG, slight less flavor. | Sensorial Description ([1]; 0.1% PG or PDO in Monster Energy Zero Ultra): More smooth tasting quality, less sourness, no bitter, | Sensorial Description ([1]; 0.1% PG or PDO in Monster Energy drink): Note: Loss of carbonation. Similar carbonic acid off- | Sensorial Description ([1]; 0.1% PG or PDO in NOS High Performance Energy Drink): No bitterness, smoother, still flavor and sweet, less | Sensorial Description ([1]; 0.1% PG or PDO in Orange 5-hour ENERGY shot (5HE Orange)): Less flavor, no bitterness, still strong sourness but less | Sensorial Description ([1]; 0.1% PG or PDO in Red Bull Energy Drink): Note: Loss of carbonation. Medium flavor level, less | Sensorial Description ([1]; 0.1% PG or PDO in Red Bull Sugar Free): Flatter, smoothness, still different off-taste as 0.01% | reduction of overall sweet quality ([1]; 0.1% in 2,000 ppm sucralose in distilled water): half of tasting time, ~10-20% less than 0.01% PG, | Sensorial Description ([1]; 1.0% PG or PDO in 79 ppm sucralose (5% SE) in distilled water): Weak PG taste note, similar sweet quality. | Sensorial Description ([1]; 1.0% PG or PDO in 238 ppm sucralose (10% SE) in distilled water): Slight PG taste, sweet smoother | Sensorial Description ([1]; 1.0% PG or PDO in 338 ppm caffeine in distilled water (caffeine drink)): Worst quality, more bitterness, medium intensity, | Sensorial Description ([1]; 1.0% PG or PDO in 2,000 ppm sucralose in distilled water): (small sip): Similar to 0.1% PG. Repeated tests | Sensorial Description ([1]; 1.0% PG or PDO in 3,338 ppm caffeine in distilled water (caffeine shot)): (small sip): similar to Control #65, no PG taste | Sensorial Description ([1]; 1.0% PG or PDO in 10,500 ppm malic acid and 2,000 ppm sucralose in distilled water): PF taste note, similar qualities as 0.1% PG. | Sensorial Description ([1]; 1.0% PG or PDO in 10,500 ppm malic acid, 2,000 ppm sucralose, 3,338 ppm caffeine in distilled water): Stronger, thinner sourness quality. | Sensorial Description ([1]; 1.0% PG or PDO in B vitamins at 5-hour Energy shot concentrations in distilled water): PG flavor taste, similar other qualities as Control | Sensorial Description ([1]; 1.0% PG or PDO in Berry 5-hour ENERGY shot (5HE Berry)): Began to show more sourness across the taste, still | Sensorial Description ([1]; 1.0% PG or PDO in Berry flavor in distilled water): Less dry than Control #114, slight less flavor. | Sensorial Description ([1]; 1.0% PG or PDO in Monster Energy Zero Ultra): Very smooth, flat tasting quality of basic tastes, no | Sensorial Description ([1]; 1.0% PG or PDO in Monster Energy drink): Note: Little carbonation. Little or no sourness, very | Sensorial Description ([1]; 1.0% PG or PDO in NOS High Performance Energy Drink): Smoother than 0.1% PG, low-medium flavor, low | Sensorial Description ([1]; 1.0% PG or PDO in Orange 5-hour ENERGY shot (5HE Orange)): Less flavor, sourness and sweetness, still moderate | Sensorial Description ([1]; 1.0% PG or PDO in Red Bull Energy Drink): Note: significantly less or no carbonation. Low | Sensorial Description ([1]; 1.0% PG or PDO in Red Bull Sugar Free): Medium off-flavor (not described) in middle tasting | Sensorial Description ([1]; 1.0% PG or PDO in Rockstar Original energy drink): Slight off-flavor (seems like PDO's off flavor), little | reduction in unpleasant taste or masking of off-taste ([1]; 2,000 ppm, 238 ppm, or 70 ppm sucralose in distilled water): No reduction in unpleasant taste, or masking of off-taste | reduction of unpleasant taste / masking of bitterness ([1]; 3,382 ppm or 338 ppm caffeine in distilled water): did not reduce the unpleasant taste, or mask the bitterness | taste modulation of B vitamins ([1]; aqueous B vitamins at concentrations comparable to 5-hour ENERGY shots): did not positively modulate | modulation of berry flavor ([1]; berry flavor in distilled water): Neither biologically-produced 1,3-propanediol, nor propylene glycol modulated the flavor | taste modulation or sour masking ([1]; malic acid at 10,500 ppm in distilled water): no positive taste modulation or sour masking effect | taste modulation of single additive solutions ([1]; separate caffeine, malic acid, and sucralose solutions at mega-dose levels): did not positively modulate the taste or mask the bitter, off, or sour tastes; also recorded: neither propylene glycol, nor biologically-produced 1,3-propanediol modulated the taste

COc1cc([C@@H]2CC(=O)c3c(O)cc(O)cc3O2)ccc1O [homoeriodictyol disodium salt]
perceived bitterness [2]: reduced the perceived bitterness

O=C(O)CC(O)C(=O)O (stereo not drawn) [malic acid]
Sensorial Description ([1]; control: 10,500 ppm malic acid in distilled water, no PG or PDO): Extreme sourness, clean sourness quality, slightly dry

OC[C@H]1O[C@H](O[C@]2(CCl)O[C@H](CCl)[C@@H](O)[C@@H]2O)[C@H](O)[C@@H](O)[C@H]1Cl [sucralose]
Sensorial Description ([1]; control: 79 ppm sucralose in distilled water, no PG or PDO): Comfortably 5% SE sweet, good sweet quality | Sensorial Description ([1]; control: 238 ppm sucralose in distilled water, no PG or PDO): 10% SE, delayed onset of sweetness, very sweet | Sensorial Description ([1]; control: 2,000 ppm sucralose in distilled water, no PG or PDO): (small sip): Extremely sweet, extremely strong sweet
